According to US8263823B2, “Immunocompetent xenograft model” (Adimmu Institute Inc., priority 2008, dated 2012):

Columns and labels:
TUBO cells = test: TUBO tumor size after aHER2, DOXORUBICIN or their combination; format: in vivo, mouse; conditions: DOXORUBICIN alone (5 or 15 mg/kg), intratumoral
Description: (§1) Cultured cancer cells were trypsinized, washed with media, and injected s.c. on the back. Tumor size was determined at 3-4 day intervals. Tumor volumes were measured along three orthogonal axes (a, b, and c) and calculated as tumor volume=abc/2.
Combination therapy of aHER2 and a chemotherapeutic could show the same reduction in efficacy due to the immunosuppressive action of the chemotherapeutic. To show this, 1×10^6 TUBO cells were injected into Balb/c mice. After the tumor was well-established, the mice were separated into groups subject to the following groups of treatments: (i) 80 μg mIgG only, (ii) 80 μg aHER2 only, (iii) 5 mg/kg DOXORUBICIN only, (iv) 15 mg/kg DOXORUBICIN only, (v) a combination of 80 μg aHER2 and 5 mg/kg DOXORUBICIN, and (vi) a combination of 80 μg aHER2 and 15 mg/kg DOXORUBICIN. The antibodies and chemotherapeutic were administered intratumorally, the time injections and tumor size measurements were taken at 19 and 26 days after tumor injection.

[1] = test system: CD8+ 2C transgenic T-cells; conditions: chemotherapy (dacarbazine) alone, compared to the control mice
Description: Lymph node (LN) cells and splenocytes (SP) were isolated from 2C TCR Tg mice. […] Cells were isolated from the inguinal LNs (DLNs), SP, or tumors at the time indicated. CFSE dilution was evaluated as described in Yu, at Id.
In order to identify the effects of the chemotherapy on CD8+ T-cell priming, 5×10^5 B16-SIY melanoma cells were injected s.c. in the B6 mice. On day 17, 2×10^6 CFSE labeled naïve CD8+ 2C transgenic T-cells were adoptively transferred into the B16-SIY tumor bearing mice. The mice were treated locally with 20 Gy of radiation on day 0 following the transfer. 200 mg/kg dacarbazine i.p. was given two days after the adoptive transfer, and DLN and SP were harvested on day 21 to determine the CFSE dilution in the DLN and SP.

4T1 tumor cells [2] = test: 4T1 breast tumor model, primary tumor growth, radiation therapy with or without paclitaxel; format: in vivo, mouse; conditions: paclitaxel 20 mg/kg i.p. on days 7 and 14 after radiation therapy (15 Gy x3), Balb/c mice
Description: The mice were irradiated using an x-ray generator (PCM 1000; Pantak) at the doses indicated by each experiment. Each mouse was protected with a lead cover with only tumor exposed, allowing local irradiation. For systemic chemotherapy, tumor-bearing mice were injected i.p. with 20 mg/kg paclitaxel (Ameristat Pharmaceuticals) for 4T1 bearing mice and 200 mg/kg dacarbazine (Bedford Laboratories) for B16 bearing mice.
as §1
A 4T1 breast tumor model was used to show the results of the test on a different type of tumor. 1×10^5 4T1 tumor cells were injected and allowed to establish for 14 days. Balb/c control mice receive the breast cancer cells and no radiation, and other mice receive radiation therapy only, chemotherapy only, or a combination of radiation therapy followed by chemotherapy. The mice receiving radiation received a dose of 15 Gy on each of days 14, 15, and 16. On days 7 and 14 following radiation therapy, the mice receiving a combination of radiation therapy and chemotherapy received 20 mg/kg paclitaxel i.p.

4T1 tumor cells [3] = test: 4T1 lung metastases colonogenic assay, radiation therapy with or without paclitaxel; format: in vivo, mouse
Excerpt: For surgical excision of primary 4T1 and B16-CCR7 tumors, mice were anesthetized, and tumors were resected with sterilized instruments. A colonogenic assay was used to evaluate metastases in 4T1 and B16-CCR7 tumors as described in B. A. Pulaski, S. Ostrand-Rosenberg, Curr Protoc Immunol Chapter 20, Unit 20 2 (May, 2001), incorporated herein by reference in its entirety. Lungs for 4T1 tumor or DLN for B16-CCR7 were collected, chopped and dissociated in DMEM supplemented with 10% FCS containing 1.5 mg/ml collagenase type D (Sigma-Aldrich) for 20 min in 37° C. shaking incubator. Single cell suspensions were plated at various dilutions in media supplemented with 10% FCS and selection drug. 4T1 is resistant to 6-thioguanine ([…]) and B16-CCR7 is resistant to G418 (0.7 mg/ml). Individual colonies representing micrometastases were counted after 5-10 days.
1×10^5 4T1 tumor cells were injected s.c. to the Balb/c mice, and the mice received 15 Gy of radiation on each days 12, 13, and 14.

With `COc1cccc2c1C(=O)c1c(O)c3c(c(O)c1C2=O)C[C@@](O)(C(=O)CO)C[C@@H]3O[C@H]1C[C@H](N)[C@H](O)[C@H](C)O1` [DOXORUBICIN] the tumor burden (TUBO cells) was “reduces tumor burden”.
For `CN(C)/N=N/c1[nH]cnc1C(N)=O` [dacarbazine], the “proliferation of cytotoxic lymphocytes (CTL)” value [1] was “did not elicit proliferation of cytotoxic lymphocytes (CTL)”.
With `CC(=O)O[C@H]1C(=O)[C@@]2(C)[C@H]([C@H](OC(=O)c3ccccc3)[C@]3(O)C[C@H](OC(=O)[C@H](O)[C@@H](NC(=O)c4ccccc4)c4ccccc4)C(C)=C1C3(C)C)[C@]1(OC(C)=O)CO[C@@H]1C[C@@H]2O` [paclitaxel] the tumor regression (4T1 tumor cells [2]) was “significantly hindered melanoma tumor regression and promoted tumor outgrowth”, the “degree of metastases in the lungs” value (4T1 tumor cells [3]; chemotherapy (paclitaxel) alone, compared to the control mice) was “little effect on the degree of metastases in the lungs” and the “increase in tumor colonies in the lungs” value (4T1 tumor cells [3]; paclitaxel 20 mg/kg i.p. on days 7 and 14 after radiation therapy (15 Gy x3), versus radiation therapy alone) was 100 fold.
